Assay results published in patent US12624004B2 (Fudan University, priority 2019, dated 2026).
Read-outs that look alike come from different tables or passages of the source.

Assays:
μ opioid receptor = biological target: T1, μ opioid receptor (Homo sapiens, UniProt P35372); assay: Competition binding assay on membranes of CHO cells expressing μ opioid receptor, [3H]-labeled ligand; conditions: for inhibition at 10 µM: Table 1-1, 10 μM concentration of compound, mean ± SD of three measurements, read-out: μOR Binding rate (%); for inhibition at 1 µM: 0.5 h, read-out: μOR Combination rate (%)
T1 construct: expressed in transfected cells; host or cells: CHO cells (membranes)
Protocol: (§1) CHO cells expressing p opioid receptor, δ opioid receptor and κ opioid receptor were cultured in 10 cm^2 culture dishes (F-12 medium+10% neonatal bovine serum) for several days, and the culture fluid was aspirated after the cells had grown to the bottom of the dishes; 3 ml of PBS/EDTA solution (0.1M NaCl, 0.01M NaH2PO4, 0.04% EDTA) was added to digest the cells for 3-5 min. Add ice-cold homogenate (50 mM HEPES PH 7.4, 3 mM MgCl, 1 mM EGTA) to the centrifuge tube, transfer the solution and sediment to a homogenizer and homogenize; then transfer the homogenate to a centrifuge tube and centrifuge at 18000 rpm. Centrifuge for 15 min, two times; the obtained precipitate was homogenized with appropriate amount of 50 mM Tris-HCl, pH 7.4 buffer and divided into centrifuge tubes and stored at −70° C. in the refrigerator until use.
(§2) The total binding tube was spiked with 20-30 μg of the expressed membrane receptor protein and […] ligand (1-2 nM), the corresponding non-specific binding tube was spiked with 1 μM of the corresponding ligand, and the sample tubes were spiked with various screened opioid ligands in a final volume of […], incubated at 30° C. for 30 min, and the reaction was terminated in ice water. […] The samples were filtered under negative pressure through GF/C (whatman) glass fiber filter paper on a Millipore sample collector. The reaction was rinsed three times with 4 ml of 50 mMV Tris-HCl (pH 7.4), the filter paper was dried and placed in 0.5 ml Eppendorf tubes with 0.5 ml of lipophilic scintillation solution, the radioactivity was measured by PERKIN ELMER PRI-CARB 2910 liquid scintillation counter and the inhibition rate was calculated. Inhibition rate (or binding rate)=(total binding rate dpm−sample tube dpm)/(total binding tube dpm−non-specific binding tube dpm)×100%
(§3) IC50 was calculated using Prism 5.0 software. the Ki value was calculated as follows, Ki=IC50/(1+[IL]/Kd), [lL] is the concentration of the added labeled ligand and Kd is the equilibrium dissociation parameter of the labeled ligand.
(§4) CHO cells expressing p opioid receptor, δ opioid receptor and κ opioid receptor were cultured in a 10 cm^2 culture dish (F-12 medium+10% neonatal bovine serum) for several days, and the culture fluid was aspirated after the cells grew to the bottom of the dish. 3 mL PBS/EDTA solution (0.1 M NaCl, 0.01 M NaH2PO4, 0.04% EDTA) was added to digest the cells for 3˜5 min, blew with a pipette to completely dislodge the cells. The cells were collected in a 40 mL centrifuge tube, centrifuged at 5000 rpm for 5 min. The supernatant was removed and the ice-cold homogenate (50 mM HEPES pH 7.4, 3 mM MgCl2, 1 mM EGTA) was added to the centrifuge tube. The solution and the precipitate were transferred to a homogenizer. Then the homogenate was transferred to a centrifuge tube and centrifuged at 18000 rpm for 15 min. The precipitate was centrifuged twice at 18000 rpm for 15 min. The obtained precipitate was homogenized by adding appropriate amount of 50 mM Tris-HCl, pH 7.4 buffer and divided into centrifuge tubes and stored at −70° C. in the refrigerator until use.
(§5) The total binding tube was added with 20-30 μg of expressed membrane receptor protein and [3H]-labeled ligand (1-2 nM). The corresponding non-specific binding tube was added with 1 μM of the corresponding ligand, and the sample tubes were added with various screened opioid ligands in a final volume of 100 μL. All of them were incubated for 30 min at 30° C., and the reaction was terminated in ice water. The samples were filtered under negative pressure through GF/C (Whatman) glass fiber filter paper on a Millipore sample collector. The reaction was rinsed three times with 4 mL of 50 mM Tris-HCl (pH 7.4), the filter paper was dried and placed in 0.5 mL Eppendorf tubes with 0.5 mL of lipophilic scintillation solution. […]

δ opioid receptor = biological target: T2, δ opioid receptor (Homo sapiens, UniProt P41143); assay: Competition binding assay on membranes of CHO cells expressing δ opioid receptor, [3H]-labeled ligand; conditions: for inhibition at 10 µM / inhibition at 1 µM: 0.5 h; for inhibition at 10 µM: Table 1-1, 10 μM concentration of compound, read-out: δOR Binding rate (%); for Ki: read-out: δOR Ki; for inhibition at 1 µM: read-out: δOR Combination rate (%)
T2 construct: expressed in transfected cells; host or cells: CHO cells (membranes)
Protocol: as §1, §2, §3, §4, §5

κ opioid receptor = biological target: T3, κ opioid receptor (Homo sapiens, UniProt P41145); assay: Competition binding assay on membranes of CHO cells expressing κ opioid receptor, [3H]-labeled ligand; conditions: for inhibition at 10 µM / inhibition at 1 µM: 0.5 h; for inhibition at 10 µM: Table 1-1, 10 μM concentration of compound, read-out: κOR Binding rate (%); for Ki: read-out: κOR Ki; for inhibition at 1 µM: read-out: κOR Combination rate (%)
T3 construct: expressed in transfected cells; host or cells: CHO cells (membranes)
Protocol: as §1, §2, §3, §4, §5

Female mice = assay: In vivo hot plate method analgesia test; conditions: intraperitoneal; for Maximum percentage effective analgesic (% MPE): Table 1-2, hot plate 55° C., 5 mg/kg dose; for Maximum percentage effective analgesia (% MPE): Table 5-2, hot plate 55° C.
Protocol: Female mice weighing about 20 g were placed on a hot plate apparatus preheated to 55° C., and the latency of the hindfoot response of the mice was used as the pain threshold indicator. Animals were screened before the experiment, and those with response latency less than 5 s or more than 30 s were excluded. To prevent foot scalding, the maximum observation time was set at 60 s. The basal pain threshold was the average of two measurements, with a 5-min interval between measurements. pain thresholds were measured at 15 m, 30 m, 60 m and 120 m after intraperitoneal injection in each group of mice. The percentage effective analgesia (% MPE) was calculated according to the following formula: percentage effective analgesia (% MPE) (post-dose latency−pre-dose latency)/(60−pre-dose latency)×100%. ED50 values were calculated based on the effective percentage of analgesia using the software Graphpad prism 5.0 software.
(§6) Female mice weighing about 20 g were placed on a hot plate apparatus preheated to 55° C., and the latency of the hindfoot response of the mice was used as the pain threshold indicator. Animals were selected before the experiment, and those with response latency less than 5 s or greater than 30 s were excluded. To prevent foot scalding, the maximum observation time was set at 60 s. The basal pain threshold was the average of two measurements, with a 5-min interval between measurements. pain thresholds were measured at 15 min, 30 min, 60 min and 120 min after intraperitoneal administration in each group of mice. The percentage of analgesic effectiveness (% MPE) was calculated according to the following equation. Percentage of effective analgesia (% MPE)_(Pre-dose incubation period−Incubation period after drug administration)/(60-Pre-dose incubation period)×100%. ED50 values were calculated based on the effective percentage of analgesia using GraphPad prism 5.0 software.
as §6, with “were screened” for “were selected”, “measurements. Pain” for “measurements. pain”, “following formula.” for “following equation. Percentage of effective analgesia (% MPE)_(Pre-dose incubation period−Incubation period after drug administration)/(60-Pre-dose incubation period)×100%. ED50 values were calculated based on the effective percentage of analgesia using GraphPad prism 5.0 software.”
ED50 values were calculated based on the effective percentage of analgesia using Graphpad Prism 5.0.
Female mice weighing about 20 g were placed on a hot plate apparatus preheated to 55° C., and the latency of the hindfoot response of the mice was used as the pain threshold indicator. Animals were screened before the experiment, and those with response latency less than 5 s or more than 30 s were excluded. To prevent foot scalding, the maximum observation time was set at 60 s. The basal pain threshold was the average of two measurements, with a 5-min interval between measurements. pain thresholds were measured at 15 min, 30 min, 60 min and 120 min after intraperitoneal administration in each group of mice. The analgesic effective percentage (% MPE) was calculated according to the following formula: analgesic effective percentage (% MPE)=(latency after drug administration−latency before drug administration)/(60−latency before drug administration)×100%. ED50 values were calculated based on the effective percentage of analgesia using the software Graphpad prism 5.0.
Female mice weighing about 20 g were placed on a hot plate apparatus preheated to 55° C. and the latency of the hindfoot response was used as an indicator of pain threshold. […]

[1] = Table 5-1, 1 μM concentration of compound

Which inhibition at 10 µM (μ opioid receptor) does the source give for `COc1cccc(C2(O)CCC(CS(=O)(=O)c3ccccc3)CC2CN(C)C)c1.Cl` (stereo not shown) [2-((Dimethylamino)methyl)-1-(3-methoxyphenyl)-4-((phenylsulfonyl)methyl)cyclohexane-1-ol hydrochloride] here?
The inhibition at 10 µM was 86.9 ± 2%.

And the inhibition at 10 µM (δ opioid receptor)?
Its inhibition at 10 µM is 9.3%.

And the inhibition at 10 µM (κ opioid receptor)?
Its inhibition at 10 µM is 34.6 ± 5.1%.

And the “Maximum percentage effective analgesic (% MPE)” value (Female mice)?
The value was 22.4%.

Which results are given for `COc1cccc(C2(O)CCC(N(C)S(=O)(=O)c3cccc(Cl)c3)CC2CN(C)C)c1.Cl` (stereo not shown) [3-Chloro-N-(3-((dimethylamino)methyl)-4-hydroxy-4-(methoxyphenyl)cyclohexyl)-N-methylbenzenesulfonamide hydrochloride]?
inhibition at 10 µM (μ opioid receptor): 90 ± 2%; inhibition at 10 µM (δ opioid receptor): 13.8 ± 3%; inhibition at 10 µM (κ opioid receptor): 66.6 ± 4.8%; Maximum percentage effective analgesic (% MPE) (Female mice): 20.2%

Which inhibition at 0.1 µM (μ opioid receptor; Table 4-1 footnote a, 0.1 μM, read-out: μOR Inhibition rate) does the source give for `COc1cccc([C@@]2(O)CCN(S(=O)(=O)Cc3ccccc3)C[C@@H]2CN(C)C)c1.Cl` [(3S,4R)-1-(Benzylsulfonyl)-3-((dimethylamino)methyl)-4-(3-methoxyphenyl)piperidin-4-ol hydrochloride] here?
The inhibition at 0.1 µM was 24.5 ± 0.64%.

And the inhibition at 0.1 µM (δ opioid receptor; Table 4-1 footnote a, 0.1 μM, read-out: δOR Inhibition rate)?
The inhibition at 0.1 µM was 7.3 ± 4.5%.

What about the inhibition at 0.1 µM (κ opioid receptor; Table 4-1 footnote a, 0.1 μM, read-out: κOR Inhibition rate) of the same compound?
Its inhibition at 0.1 µM is 20.75 ± 0.13%.

And the “% MPE” value (Female mice; Table 4-2, hot plate 55° C., 10 mg/kg dose)?
Its value is 13.4%.

What does the source list for `COc1cccc(C2(O)CCN(C(=O)Cc3cc(C(F)(F)F)cc(C(F)(F)F)c3)CC2CN(C)C)c1.Cl` (stereo not shown) [FWBE1, 2-(3,5-Bis(trifluoromethyl)phenyl)-1-(3-((dimethylamino)methyl)-4-hydroxy-4-(3-methoxyphenyl)piperidin-1-yl)ethyl-1-one hydrochloride]?
Ki (μ opioid receptor; Table 5-1, read-out: μOR Ki): 0.0253 ± 0.0049 µM; Ki (δ opioid receptor; Table 5-1): 4.39 ± 0.351 µM; Ki (κ opioid receptor; Table 5-1): 4.42 ± 0.181 µM; Maximum percentage effective analgesia (% MPE) (Female mice; 10 mg/kg dose): 17.8%

How did the inhibition at 1 µM (μ opioid receptor) turn out when `COc1cccc(C2(O)CCN(C(=O)Cc3ccsc3)CC2CN(C)C)c1.Cl` (stereo not shown) [FWBE2, 1-(3-((Dimethylamino)methyl)-4-hydroxy-4-(3-methoxyphenyl)piperidin-1-yl)-2-(thiophen-3-yl)ethyl-1-one hydrochloride] was run?
Its inhibition at 1 µM is 40.6 ± 0.9%.

What about the inhibition at 1 µM (δ opioid receptor) of the same compound?
Its inhibition at 1 µM is 14.7 ± 0.9%.

And the inhibition at 1 µM (κ opioid receptor)?
The inhibition at 1 µM was 20.8 ± 1.9%.

What about the “Maximum percentage effective analgesia (% MPE)” value (Female mice; 10 mg/kg dose) of the same compound?
The value was 42%.

`COc1cccc(C2(O)CCN(C(=O)Cc3ccccc3)CC2CN(C)C)c1.Cl` (stereo not shown) [FWBE3, 1-(3-((Dimethylamino)methyl)-4-hydroxy-4-(3-methoxyphenyl)piperidin-1-yl)-2-phenylethyl-1-one hydrochloride] was tested. Which inhibition at 1 µM (μ opioid receptor) did it give?
Its inhibition at 1 µM is 41.1 ± 2.3%.

And the inhibition at 1 µM (δ opioid receptor)?
The inhibition at 1 µM was 11.7 ± 0.9%.

What about the inhibition at 1 µM (κ opioid receptor) of the same compound?
Its inhibition at 1 µM is 23.4 ± 5.7%.

And the “Maximum percentage effective analgesia (% MPE)” value (Female mice; 10 mg/kg dose)?
Its value is 63.5%.

What does the source list for `COc1cccc(C2(O)CCN(C(=O)Cc3cccc(C(F)(F)F)c3)CC2CN(C)C)c1.Cl` (stereo not shown) [FWBE4, 1-(3-((Dimethylamino)methyl)-4-hydroxy-4-(3-methoxyphenyl)piperidin-1-yl)-2-(3-(trifluoromethyl)phenyl)ethyl-1-one hydrochloride]?
inhibition at 1 µM (μ opioid receptor; [1]): 37.8 ± 2.9%; Ki (δ opioid receptor; Table 5-1): > 10 µM; Ki (κ opioid receptor; Table 5-1): 3.03 ± 0.15 µM; Maximum percentage effective analgesia (% MPE) (Female mice; 10 mg/kg dose): 69%

What does the source list for `COc1cccc(C2(O)CCN(C(=O)c3cc(F)c(F)cc3F)CC2CN(C)C)c1.Cl` (stereo not shown) [FWBE5, (3-((Dimethylamino)methyl)-4-hydroxy-4-(3-methoxyphenyl)piperidin-1-yl)(2,4,5-trifluorophenyl)methanone hydrochloride]?
inhibition at 1 µM (μ opioid receptor; [1]): 13 ± 0.2%; inhibition at 1 µM (δ opioid receptor; [1]): 7 ± 6.3%; inhibition at 1 µM (κ opioid receptor; [1]): 23 ± 5.9%; Maximum percentage effective analgesia (% MPE) (Female mice; 10 mg/kg dose): 3%

Which inhibition at 1 µM (μ opioid receptor; [1]) does the source give for `COc1cccc(C2(O)CCN(C(=O)Cc3cccc(OC(F)(F)F)c3)CC2CN(C)C)c1.Cl` (stereo not shown) [FWBE6, 1-(3-((Dimethylamino)methyl)-4-hydroxy-4-(3-methoxyphenyl)piperidin-1-yl)-2-(3-(trifluoromethoxy)phenyl)ethyl-1-one hydrochloride] here?
Its inhibition at 1 µM is 21.5 ± 0.1%.

And the inhibition at 1 µM (δ opioid receptor; [1])?
Its inhibition at 1 µM is 13.2 ± 1%.

What about the inhibition at 1 µM (κ opioid receptor; [1]) of the same compound?
The inhibition at 1 µM was 13.5 ± 0.6%.

And the “Maximum percentage effective analgesia (% MPE)” value (Female mice; 10 mg/kg dose)?
Its value is 47%.

Which results are given for `COc1cccc(C2(O)CCN(C(=O)Cn3cnnn3)CC2CN(C)C)c1.Cl` (stereo not shown) [FWBE7, 1-(3-((Dimethylamino)methyl)-4-hydroxy-4-(3-methoxyphenyl)piperidin-1-yl)-2-(1H-tetrazol-1-yl)ethyl-1-one hydrochloride]?
inhibition at 1 µM (μ opioid receptor; [1]): 0%; inhibition at 1 µM (δ opioid receptor; [1]): 8.9 ± 2.4%; inhibition at 1 µM (κ opioid receptor; [1]): 22.9 ± 0.6%; Maximum percentage effective analgesia (% MPE) (Female mice; 10 mg/kg dose): 12.0%
